# Numbered stars: 1 amine (or outer) side, 2 acyl side, 3 side chain; on linkers, the order of the positions; unused ones are H or OH. Bridge positions count the residues as written; N and C are the ends. Square brackets hold non-standard residues; d marks the D form. Peptide text beside a SMILES is read from it. I, II: the chains in the order shown. * marks the point of attachment. Actinocin(9to1) = Cc1c2oc3c(C)ccc(C(=O)[*:1])c3nc-2c(C(=O)[*:2])c(N)c1=O; Leu(3R-OH,Nα-propionyl) = CCC(=O)N[C@H](C(=O)*)[C@H](O)C(C)C; X1 = CC(C)[C@@H](O[*:3])[C@H](N[*:1])C(=O)[*:2]; NMeT = CN[C@H](C(=O)O)[C@@H](C)O; dPhLac = O=C(O)[C@H](O)Cc1ccccc1; NMeV = CN[C@H](C(=O)O)C(C)C; NMeA = CN[C@@H](C)C(=O)O; NMeDha = C=C(NC)C(=O)O; Sar = CNCC(=O)O
# Legend:
# [1] = test system: DNA synthesis in B16-F10 melanoma cells; assay: Inhibition of macromolecule synthesis: DNA (3H-thymidine incorporation); assay type: cell-based, murine; conditions: Mus musculus, 4.5 hours + 30 minutes label, read-out: IC₅₀ DNA
# Description: (§2) B16-F10 cells (10⁵ cells/ml) were incubated with test materials at 37°C for 4.5 hours (for DNA synthesis) or 4 hours (for RNA and protein syntheses). Labelled precursor, ³H-thymidine, ¹⁴C-uridine or ³H-leucine was added to the culture and further incubated for 30 minutes (for DNA) or 60 minutes (for RNA and protein). After washing with chilled 5% trichloroacetic acid solution, the radioactivity incorporated into the acid-insoluble fraction of the tumor cells was determined by a liquid scintillation counter. Actinomycin D was used as a reference compound.
# [2] = test system: RNA synthesis in B16-F10 melanoma cells; assay: Inhibition of macromolecule synthesis: RNA (14C-uridine incorporation); assay type: cell-based, murine; conditions: Mus musculus, 4 hours + 60 minutes label, read-out: IC₅₀ RNA
# Description: as §2
# [3] = test system: Protein synthesis in B16-F10 melanoma cells; assay: Inhibition of macromolecule synthesis: protein (3H-leucine incorporation); assay type: cell-based, murine; conditions: Mus musculus, 4 hours + 60 minutes label, read-out: IC₅₀ Protein
# Description: as §2
# platelet aggregation = conditions: Fujioka, et al, J. Org. Chem. 53, 2820 (1988); cited from earlier work
# [4] = Fujioka, et al, J. Org. Chem. 53, 2820 (1988); cited from earlier work
# B16 melanoma = assay: In vivo antitumor activity in tumor-bearing mice, B16 melanoma (ip); conditions: B16 melanoma ip, BDF₁ mice, Q4D x 3; for T/C: significant if T/C ≧ 125%
# Description: (§1) In vivo antitumor activity of BU-3983T was examined using tumor-bearing mice. Male BDF₁ mice were intraperitoneally inoculated with 0.5 ml of 10% melanotic melanoma B16 brei, and female CDF₁ mice were intraperitoneally inoculated with 0.4 ml of diluted ascitic fluid containing 10⁶ lymphocytic leukemia P388 cells or 10⁵ lymphoid leukemia L1210 cells. Mitomycin C was used as a reference compound. Test compounds were intraperitoneally administered to the mice by the following treatment schedules: once a day on day 1 only (Q1D x 1), on days 1, 5 and 9 (Q4D x 3) or on days 1 to 9 (Q1D x 9). […]
# P388 leukemia = assay: In vivo antitumor activity in tumor-bearing mice, P388 leukemia (ip); conditions: P388 leukemia ip, CDF₁ mice, Q1D x 1; for T/C: significant if T/C ≧ 125%
# Description: as §1
# L1210 leukemia = assay: In vivo antitumor activity in tumor-bearing mice, L1210 leukemia (ip); conditions: L1210 leukemia ip, CDF₁ mice, Q1D x 1; for T/C: significant if T/C ≧ 125%
# Description: as §1
# [5] = test system: Gram-positive microorganisms; conditions: Maehr, et al, J. Antibiotics, 39, 17 (1986); cited from earlier work
# Gram-positive organism = conditions: Sheehan et al, J. Am. Chem. Soc., 90, 462 (1968); cited from earlier work
# Gram-negative bacteria = conditions: Sheehan et al, J. Am. Chem. Soc., 90, 462 (1968); cited from earlier work
compound,measurement,setting,value
"Cc1c2oc3c(C)ccc(C(=O)N[C@@H]4C(=O)N[C@H](C(C)C)C(=O)N5CCC[C@H]5C(=O)N(C)CC(=O)N(C)[C@@H](C(C)C)C(=O)O[C@@H]4C)c3nc-2c(C(=O)N[C@@H]2C(=O)N[C@H](C(C)C)C(=O)N3CCC[C@H]3C(=O)N(C)CC(=O)N(C)[C@@H](C(C)C)C(=O)O[C@@H]2C)c(N)c1=O [Actinomycin D, reference compound] (I: T[dV]P[Sar][NMeV] / II: T[dV]P[Sar][NMeV]; ester I:1-I:C, II:1-II:C; linker I:N-II:N via Actinocin(9to1))",IC50,[1],1.3 µg/mL
same,IC50,[2],0.07 µg/mL
same,IC50,[3],> 30 µg/mL
"C=C1C(=O)N[C@@H](C)C(=O)N(C)[C@@H](C)C(=O)N[C@@H]([C@H](OC(=O)[C@@H](NC(=O)CC)[C@H](O)C(C)C)C(C)C)C(=O)N(C)[C@@H]([C@@H](C)OC)C(=O)O[C@H](C(C)C)[C@H](NC(C)=O)C(=O)O[C@H](Cc2ccccc2)C(=O)N1C [FR900359] (Ac-[X1][dPhLac][NMeDha]A[NMeA][X1](Leu(3R-OH,Nα-propionyl))[NMeT](Me); ester 1-C)",inhibition of platelet aggregation,platelet aggregation,inhibition of platelet aggregation
same,decrease of blood pressure,[4],decrease of blood pressure
"CO[C@@]12[C@H](COC(N)=O)C3=C(C(=O)C(C)=C(N)C3=O)N1C[C@@H]1N[C@@H]12 [Mitomycin C, reference compound]",Body weight change on day 5,B16 melanoma; 0.25 mg/kg/day ip,+0.8 g
same,MST (Median survival time),B16 melanoma; 0.25 mg/kg/day ip,15.5 days
same,T/C,B16 melanoma; 0.25 mg/kg/day ip,119%
same,Body weight change on day 5,B16 melanoma; 0.5 mg/kg/day ip,+0.6 g
same,MST (Median survival time),B16 melanoma; 0.5 mg/kg/day ip,18.0 days
same,T/C,B16 melanoma; 0.5 mg/kg/day ip,138*² %
same,Body weight change on day 5,B16 melanoma; 1 mg/kg/day ip,+0.8 g
same,MST (Median survival time),B16 melanoma; 1 mg/kg/day ip,22.0 days
same,T/C,B16 melanoma; 1 mg/kg/day ip,169*² %
same,Body weight change on day 5,B16 melanoma; 2 mg/kg/day ip,+0.5 g
same,MST (Median survival time),B16 melanoma; 2 mg/kg/day ip,27.5 days
same,T/C,B16 melanoma; 2 mg/kg/day ip,212*² %
same,Body weight change on day 4,P388 leukemia; 0.25 mg/kg/day ip,+1.0 g
same,MST (Median survival time),P388 leukemia; 0.25 mg/kg/day ip,11.5 days
same,T/C,P388 leukemia; 0.25 mg/kg/day ip,115%
same,Body weight change on day 4,P388 leukemia; 0.5 mg/kg/day ip,+1.5 g
same,MST (Median survival time),P388 leukemia; 0.5 mg/kg/day ip,13.0 days
same,T/C,P388 leukemia; 0.5 mg/kg/day ip,130*² %
same,Body weight change on day 4,P388 leukemia; 1 mg/kg/day ip,+2.0 g
same,MST (Median survival time),P388 leukemia; 1 mg/kg/day ip,14.0 days
same,T/C,P388 leukemia; 1 mg/kg/day ip,140*² %
same,Body weight change on day 4,P388 leukemia; 2 mg/kg/day ip,+0.5 g
same,MST (Median survival time),P388 leukemia; 2 mg/kg/day ip,15.5 days
same,T/C,P388 leukemia; 2 mg/kg/day ip,155*² %
same,Body weight change on day 4,P388 leukemia; 4 mg/kg/day ip,-0.8 g
same,MST (Median survival time),P388 leukemia; 4 mg/kg/day ip,16.5 days
same,T/C,P388 leukemia; 4 mg/kg/day ip,165*² %
same,Body weight change on day 4,L1210 leukemia; 0.5 mg/kg/day ip,+1.5 g
same,MST (Median survival time),L1210 leukemia; 0.5 mg/kg/day ip,10.0 days
same,T/C,L1210 leukemia; 0.5 mg/kg/day ip,125*² %
same,Body weight change on day 4,L1210 leukemia; 1 mg/kg/day ip,+1.5 g
same,MST (Median survival time),L1210 leukemia; 1 mg/kg/day ip,10.0 days
same,T/C,L1210 leukemia; 1 mg/kg/day ip,125*² %
same,Body weight change on day 4,L1210 leukemia; 2 mg/kg/day ip,+1.0 g
same,MST (Median survival time),L1210 leukemia; 2 mg/kg/day ip,10.5 days
same,T/C,L1210 leukemia; 2 mg/kg/day ip,131*² %
same,Body weight change on day 4,L1210 leukemia; 4 mg/kg/day ip,+0.5 g
same,MST (Median survival time),L1210 leukemia; 4 mg/kg/day ip,11.0 days
same,T/C,L1210 leukemia; 4 mg/kg/day ip,138*² %
same,Body weight change on day 4,L1210 leukemia; 8 mg/kg/day ip,-0.3 g
same,MST (Median survival time),L1210 leukemia; 8 mg/kg/day ip,12.5 days
same,T/C,L1210 leukemia; 8 mg/kg/day ip,156*² %
C/C=C(\C)C(=O)[C@@H](/C=C(\C)[C@@H]1O[C@@](O)([C@](O)(CC)C(=O)N[C@@H]2C(=O)N3NCCC[C@H]3C(=O)N(O)[C@H](COC)C(=O)N(C)[C@H](C)C(=O)N3NCCC[C@@H]3C(=O)N[C@@H]([C@H](C)O)C(=O)O[C@@H]2C(C)C)CC[C@H]1C)CC [azinothricin],activity against Gram-positive microorganisms,[5],primarily active
Telomycin,activity against Gram-positive organism,Gram-positive organism,active
same,effect against most Gram-negative bacteria,Gram-negative bacteria,little or no effect
